± gives the expanded uncertainty stated by the source.
Test: mn = molality of the nth substance listed, in mol/kg
Conditions: 298.15 K, 100 kPa, Liquid, Vibrating tube method

mass density (m1 = 0.5) [kg/m3]	mass density (m1 = 2) [kg/m3]	mass density (m1 = 2.499) [kg/m3]	mass density (m1 = 1.5) [kg/m3]	Structure (SMILES)	other results
1019.83 ± 0.11	1081.48 ± 0.12	1100.25 ± 0.12	–	[Cl-].[K+] [potassium chloride] + O	mass density (m1 = 0.9998): 1041.41 ± 0.11 kg/m3; mass density (m1 = 1.499): 1062.03 ± 0.12 kg/m3; mass density (m1 = 2.98): 1117.69 ± 0.13 kg/m3
–	–	–	–	C[N+](C)(C)C[C@H](O)CC(=O)[O-] [(R)-3-hydroxy-4-(trimethylammonio)butanoate] + O	mass density (m1 = 0.8817): 1023.6 ± 0.21 kg/m3
1035.42 ± 0.11	1142.48 ± 0.14	–	1107.94 ± 0.13	[Br-].[Na+] [sodium bromide] + O	mass density (m1 = 0.9999): 1072.67 ± 0.12 kg/m3; mass density (m1 = 2.5): 1175.65 ± 0.14 kg/m3; mass density (m1 = 2.999): 1207.24 ± 0.15 kg/m3
–	1072.27 ± 0.12	1089.16 ± 0.12	1054.74 ± 0.12	[Cl-].[Na+] [sodium chloride] + O	mass density (m1 = 1): 1036.18 ± 0.11 kg/m3; mass density (m1 = 3): 1105.67 ± 0.13 kg/m3

From the NIST ThermoML archive (doi:10.1016/j.jct.2015.11.028)
